Earlier results in PMC12308805, “Ultrahigh-Throughput Virtual Screening Strategies against PPI Targets: A Case Study of STAT Inhibitors” (Journal of Chemical Information and Modeling, 2025).
Numbered stars: 1 amine (or outer) side, 2 acyl side, 3 side chain; on linkers, the order of the positions; unused ones are H or OH. Square brackets hold non-standard residues; d marks the D form. Peptide text beside a SMILES is read from it. X2 = O=C([C@H](Cc1ccc(Cc2nn[nH]n2)cc1)N[*:1])[*:2]

tested on: STAT3; settings: sheet 6QHD_actives_decoys, retrospective screening set for STAT3 SH2 domain (PDB 6QHD); decoys are presumed inactives, not tested; ref DUD-E; cited from earlier work

With `COc1ccc2[nH]cc(CCN/C(=N/C(=O)/C=C/c3cc(OC)c(OC)c(OC)c3)Nc3nc(C)cc(C)n3)c2c1` [Decoy944] as the compound, how does the Type read?
The Type was “Inactive (Decoy)”.

For `CC(C)N(C(=O)c1ccc(C(=O)Nc2cccc(NC(=O)c3ccc(C(=O)N(C(C)C)C(C)C)cc3)n2)cc1)C(C)C` [Decoy874], which Type is on record?
Its Type is “Inactive (Decoy)”.

For `COc1cc(-c2ccc(NC(=O)c3ccc(OC)c(OC)c3)c(OC)c2)ccc1NC(=O)c1ccc(OC)c(OC)c1` [Decoy903], which Type is on record?
Its Type is “Inactive (Decoy)”.

For `CC/C=C\C/C=C\C/C=C\CCCCCCCC(=O)OC[C@@H](O)CO[C@H]1O[C@@H](CO[C@H]2O[C@@H](CO)[C@H](O)[C@@H](O)[C@@H]2O)[C@@H](O)[C@@H](O)[C@@H]1O` [Decoy758], which Type is on record?
The Type was “Inactive (Decoy)”.

For `O=C(CNS(=O)(=O)c1ccc(NC(=S)Nc2ccc([N+](=O)[O-])cc2)cc1)c1ccccc1` [Decoy913], which Type is on record?
Its Type is “Inactive (Decoy)”.

With `CCOC(=O)C1=C(C)N(CCOC)C(=O)/C1=C\c1ccc(CNC(=O)C(=O)Nc2ccc(C(=O)OCC)cc2)o1` [Decoy951] as the compound, how does the Type read?
Its Type is “Inactive (Decoy)”.

For `CN(CCO)c1ccc(/C=N\Nc2ccc(S(=O)(=O)Nc3ccccc3C(=O)O)cc2[N+](=O)[O-])cc1` [Decoy894], which Type is on record?
The Type was “Inactive (Decoy)”.

With `CC(C)CN(C(=O)CN(C)C(=O)Cc1ccccc1Cl)c1c(N)n(CC(C)C)c(=O)[nH]c1=O` [Decoy755] as the compound, how does the Type read?
The Type was “Inactive (Decoy)”.

With `CC(=C\C(=O)O)/C=C(\C)C[C@@H](C)CCCC[C@@H](O)[C@@H](CO)C(=O)OC[C@H]1O[C@@H](O)[C@@H](O)[C@@H](O)[C@H]1O` [Decoy875] as the compound, how does the Type read?
Its Type is “Inactive (Decoy)”.

For `Cc1cc(NS(=O)(=O)c2ccc(NC(=O)CCCC(=O)Nc3ccc(S(=O)(=O)Nc4cc(C)on4)cc3)cc2)no1` [Decoy746], which Type is on record?
The Type was “Inactive (Decoy)”.

Which Type does the source give for `CO[C@@H]1[C@@H](OC(N)=O)[C@H](O)[C@@H](Oc2ccc3c(O)c(NC(=O)c4ccc(O)c(CC=C(C)C)c4)c(=O)oc3c2C)OC1(C)C` [Decoy883] here?
The Type was “Inactive (Decoy)”.

Which Type does the source give for `O=C(OC[C@@H]1O[C@H](Oc2ccc(O)cc2COC(=O)[C@@]2(O)[C@@H](O)CCC(=O)[C@@H]2O)[C@H](OC(=O)[C@H]2C=CCC2)[C@H](O)[C@@H]1O)[C@H]1C=CCC1` [Decoy886] here?
The Type was “Inactive (Decoy)”.

Which Type does the source give for `Cc1nn(-c2cc(Cl)c(S(=O)(=O)O)cc2Cl)c(O)c1/N=N/c1cccc(S(=O)(=O)O)c1` [Decoy763] here?
The Type was “Inactive (Decoy)”.

Which Type does the source give for `CCSc1nnc(NC(=O)CSc2nnc(CNC(=O)c3cccs3)n2-c2ccccc2OC)s1` [Decoy853] here?
The Type was “Inactive (Decoy)”.

With `CCN(CC)c1ccc(/C=N/Nc2nc(SCC(=O)n3nc(C)cc3C)n[nH]2)c(O)c1` [Decoy937] as the compound, how does the Type read?
Its Type is “Inactive (Decoy)”.

Which Type does the source give for `COc1ccc(CCN/C(=N/c2nc(C)cc(C)n2)NS(=O)(=O)c2ccc(Br)cc2)cc1OC` [Decoy898] here?
The Type was “Inactive (Decoy)”.

Which Type does the source give for `CC(=O)O[C@H]1[C@@H](O)[C@H](CO)O[C@H](O[C@@H](C/N=C/c2c(O)cc(O)c3ccccc23)[C@@H](CO)O[C@H](O)C/N=C/c2c(O)cc(O)c3ccccc23)[C@@H]1O` [Decoy742] here?
Its Type is “Inactive (Decoy)”.

Which Type does the source give for `COc1ccc(OC)c(S(=O)(=O)Nc2ccc(S(=O)(=O)Nc3nccc(C)n3)cc2)c1` [Decoy835] here?
The Type was “Inactive (Decoy)”.

same assay, conditions: sheet 6QHD_actives_decoys; known STAT3 actives of the retrospective screening set; ref ChEMBL / literature; cited from earlier work

Which “Type (known STAT3 active)” value does the source give for `CC(C)C[C@H](NC(=O)/C=C/c1ccc(OP(=O)(O)O)cc1)C(=O)N1CCC[C@H]1C(=O)N[C@@H](CCC(N)=O)COC(N)=O` [CHEMBL573643] here?
The value was “Active”.

For `CC(=O)N[C@@H](Cc1ccc(Cc2nn[nH]n2)cc1)C(=O)N[C@@H](CC(C)C)C(=O)N1CCC[C@H]1C(=O)N[C@@H](CCC(N)=O)C(=O)N[C@H](C(=O)N[C@H](C(=O)O)C(C)C)[C@@H](C)O` [CHEMBL233355] (Ac-[X2]LPQTV-OH), which “Type (known STAT3 active)” value is on record?
Its value is “Active”.

Which “Type (known STAT3 active)” value does the source give for `CC(C)C[C@H](NC(=O)/C=C/c1ccc(OP(=O)(O)O)cc1)C(=O)N1C[C@H]2C[C@H]2[C@H]1C(=O)NCCCC(N)=O` [CHEMBL577143] here?
Its value is “Active”.

same assay, conditions: sheet 6QHD_actives_decoys; retrospective screening set for STAT3 SH2 domain (PDB 6QHD); […]; ref DUD-E; cited from earlier work

With `COc1ccc(S(=O)(=O)Nc2ccc(S(=O)(=O)Nc3nc(C)cc(C)n3)cc2)cc1F` [Decoy560] as the compound, how does the Type read?
Its Type is “Inactive (Decoy)”.

With `CCCNC(=O)CN1CCN(c2cc(C(=O)O)c3cc(NS(=O)(=O)c4cccc(C)c4)ccc3n2)CC1` [Decoy646] as the compound, how does the Type read?
The Type was “Inactive (Decoy)”.

With `O=C(Nc1ccc([N+](=O)[O-])cc1[N+](=O)[O-])[C@@](F)(OC(F)(F)[C@@](F)(OC(F)(F)C(F)(F)C(F)(F)F)C(F)(F)F)C(F)(F)F` [Decoy658] as the compound, how does the Type read?
The Type was “Inactive (Decoy)”.

same assay, conditions: sheet 6QHD_actives_decoys; retrospective screening set for STAT3 SH2 domain (PDB 6QHD); decoys generated with DUD-E and presumed inactive, not tested; ref DUD-E; cited from earlier work

With `COc1cc([N+](=O)[O-])ccc1NC(=O)C[C@H]1N=C(N/C(N)=N/c2ccccc2C)N=C1O` [Decoy615] as the compound, how does the Type read?
Its Type is “Inactive (Decoy)”.

With `Cc1cccn2c(=O)c(/C=C3\SC(=S)N(CCCCCC(=O)O)C3=O)c(NCCN3CCOCC3)nc12` [Decoy714] as the compound, how does the Type read?
The Type was “Inactive (Decoy)”.

With `OCCN(CCO)C1=N[C@@H]2C(N3CCCCC3)=NC(N(CCO)CCO)=N[C@@H]2C(N2CCCCC2)=N1` [Decoy648] as the compound, how does the Type read?
The Type was “Inactive (Decoy)”.

With `Cn1c(CNc2ccc(C(=N)N)cc2)nc2cc(C(=O)N(CCC(=O)O[C@@H]3O[C@H](C(=O)O)[C@@H](O)[C@H](O)[C@H]3O)c3ccccn3)ccc21` [Decoy516] as the compound, how does the Type read?
The Type was “Inactive (Decoy)”.

For `COC(=O)CCSCCO[C@@H]1O[C@H](CO)[C@@H](O[C@@H]2O[C@H](CO)[C@@H](O)[C@@H](O)[C@H]2O)[C@H](O)[C@@H]1NC(C)=O` [Decoy353], which Type is on record?
Its Type is “Inactive (Decoy)”.

For `COc1ccc(C(=O)Nc2ccc(S(=O)(=O)c3ccc(NC(=O)c4ccc(OC)c(OC)c4)cc3)cc2)cc1OC` [Decoy665], which Type is on record?
The Type was “Inactive (Decoy)”.

Which Type does the source give for `COCCN(CCOC)S(=O)(=O)c1ccc(C(=O)Nc2sccc2C(=O)NN(C)C)cc1` [Decoy623] here?
The Type was “Inactive (Decoy)”.

Which Type does the source give for `CCOC(=O)c1sc(NC(=O)CCCS(=O)(=O)c2nc(-c3ccccc3OC)cc(C(F)(F)F)n2)c(C(N)=O)c1C` [Decoy482] here?
The Type was “Inactive (Decoy)”.

For `CC(=O)N[C@@H]1[C@@H](O)[C@H](O[C@@H]2O[C@H](CO)[C@H](O)[C@H](O[C@@]3(C(=O)O)C[C@H](O)[C@H](NC(C)=O)[C@H]([C@H](O)[C@H](O)CO)O3)[C@H]2O)[C@@H](CO)O[C@H]1O` [Decoy637], which Type is on record?
Its Type is “Inactive (Decoy)”.

With `COc1ccc(Cl)cc1N/C(N)=N\c1nc(CSc2nnnn2-c2ccccc2)cc(=O)[nH]1` [Decoy678] as the compound, how does the Type read?
The Type was “Inactive (Decoy)”.

For `CC[N+]1=c2cc3c(cc2CCC1)=Nc1cc2c(cc1O3)N(CCCC(=O)NCCCCCNC(=O)CCCC[C@@H]1SC[C@@H]3NC(=O)N[C@@H]31)C(C)(C)C=C2CS(=O)(=O)[O-]` [Decoy583], which Type is on record?
Its Type is “Inactive (Decoy)”.

Which Type does the source give for `Cc1ccc(S(=O)(=O)NNc2ncnc(NNC(=O)c3ccccc3)c2[N+](=O)[O-])cc1` [Decoy575] here?
Its Type is “Inactive (Decoy)”.

For `CC(C)(C)c1cc(Br)cc([C@@H](CN(C(=O)CN)C(=O)c2cc(O)cc(N=C3NCC(O)CN3)c2)C(=O)O)c1` (stereo partly shown) [Decoy598], which Type is on record?
Its Type is “Inactive (Decoy)”.

With `C=CCOC(=O)[C@H]1O[C@@H](OC(=O)c2cc(S(N)(=O)=O)c(Cl)cc2NCc2ccco2)[C@H](O)[C@@H](O)[C@@H]1O` [Decoy370] as the compound, how does the Type read?
Its Type is “Inactive (Decoy)”.

For `COC(=O)[C@@H](/C(=N/N)C(=O)Nc1cc(Cl)ccc1Cl)c1nc2ccc([N+](=O)[O-])cc2nc1O` [Decoy349], which Type is on record?
The Type was “Inactive (Decoy)”.

Which Type does the source give for `COc1cc([C@@H]2C(C(=O)c3ccc4c(c3)OCCO4)=C(O)C(=O)N2CCCn2ccnc2)cc(Br)c1O` [Decoy647] here?
Its Type is “Inactive (Decoy)”.

For `Cc1cc(NS(=O)(=O)c2ccc(N/N=C(/C#N)C(=O)Nc3ccc(S(N)(=O)=O)cc3)cc2)no1` [Decoy483], which Type is on record?
Its Type is “Inactive (Decoy)”.

For `CCN(CC)S(=O)(=O)c1cc(NC(=O)CSc2nnc(C(F)(F)F)n2N)ccc1C` [Decoy478], which Type is on record?
Its Type is “Inactive (Decoy)”.

For `COCCOc1ccc(C(F)(F)F)cc1NC(=O)CSc1nnc(-c2ccc(OC)cc2)o1` [Decoy488], which Type is on record?
The Type was “Inactive (Decoy)”.

Which Type does the source give for `O=C(O)c1[nH]nc(-c2ccc(O[C@H]3O[C@@H](CO)[C@@H](O)[C@@H](O)[C@H]3O)cc2O)c1-c1ccc2c(c1)OCCO2` [Decoy397] here?
Its Type is “Inactive (Decoy)”.

With `Nc1nc(OCc2cc(Br)cs2)c2ncn(CCCCCCCCO[C@@H]3O[C@@H](CO)[C@@H](O)[C@@H](O)[C@@H]3O)c2n1` [Decoy329] as the compound, how does the Type read?
Its Type is “Inactive (Decoy)”.

For `CCCCCCCCCC(=O)O[C@H]1[C@@H](O[C@@]2(CO)O[C@@H](CO)[C@@H](O)[C@H]2O)O[C@@H](CO)[C@@H](OC(=O)C(C)C)[C@@H]1OC(=O)C(C)C` [Decoy419], which Type is on record?
Its Type is “Inactive (Decoy)”.

For `COc1cc(NC(=S)/N=C(/NCCCN2CCOCC2)Nc2nc(C)cc(C)n2)cc(OC)c1OC` [Decoy386], which Type is on record?
The Type was “Inactive (Decoy)”.

Which Type does the source give for `CCN(CC)S(=O)(=O)c1ccc(NC(=O)CSc2n[nH]c(NN=C3CCCC3)n2)cc1` [Decoy684] here?
The Type was “Inactive (Decoy)”.

For `Cc1ccc(S(=O)(=O)NCCN(CCN(CCNS(=O)(=O)c2ccc(C)cc2)S(=O)(=O)c2ccc(C)cc2)S(=O)(=O)c2ccc(C)cc2)cc1` [Decoy653], which Type is on record?
The Type was “Inactive (Decoy)”.

For `COC(=O)[C@@H]1O[C@H](OC/C(=N/NC(N)=O)[C@H]2CC[C@@H]3[C@@H]4CC[C@@H]5C[C@H](OC(C)=O)CC[C@@]5(C)[C@H]4[C@H](O)C[C@@]23C)[C@@H](OC(C)=O)[C@H](OC(C)=O)[C@H]1OC(C)=O` [Decoy498], which Type is on record?
Its Type is “Inactive (Decoy)”.

With `O=C(Nc1ccc(S(=O)(=O)Nc2ncccn2)cc1)c1cccc(C(=O)Nc2ccc(S(=O)(=O)Nc3ncccn3)cc2)n1` [Decoy668] as the compound, how does the Type read?
Its Type is “Inactive (Decoy)”.

Which Type does the source give for `COc1ccccc1CNC(=O)C[C@@H]1[C@H](O)CC[C@@H]2[C@](C)(CO)[C@H](OC(=O)Nc3cc(OC)c(OC)c(OC)c3)CC[C@]21C` [Decoy724] here?
Its Type is “Inactive (Decoy)”.

With `COC(=O)c1ccc(C(=O)OC)c(NC(=O)c2ccc(C(=O)Nc3cc(C(=O)OC)ccc3C(=O)OC)cc2)c1` [Decoy335] as the compound, how does the Type read?
The Type was “Inactive (Decoy)”.

For `Nc1ncnc2c1ncn2[C@H]1O[C@@H](CO[P@@](=O)(O)O[P@@](=O)(O)OC[C@H](O)[C@H](O)[C@H](O)C=O)[C@@H](O)[C@@H]1O` [Decoy403], which Type is on record?
Its Type is “Inactive (Decoy)”.

Which Type does the source give for `Cc1ccc(S(=O)(=O)CNC(=O)[C@@H](c2ccc3c(c2)OCO3)N(C)C(=O)c2cccc(O)c2O)cc1` [Decoy614] here?
The Type was “Inactive (Decoy)”.
